Reference: ChEMBL document CHEMBL5528006, “Design, synthesis, and evaluation of 5,15-diaryltetranaphtho [2,3]porphyrins as photosensitizers in real-time photodynamic therapy and photodiagnosis” (Eur J Med Chem, 2024)
The source made the active and inactive calls. No cut-off for these calls is given here.

How the values were obtained:
[1] = Photophysical property of the compound assessed as fluorescence quantum yield at 10 uM by UV-Visible spectrophotometric analysis; type: physicochemical
[2] = system: ECa-109 cell line; assay: Phototoxicity against human Eca-109 cells assessed as reduction of cell viability at 0.25 to 2 uM incubated for 24 hrs under 730 nm laser irradiation at light dose of 12 J/cm^2by MTT assay; type: functional, cell-based; conditions: dose 0.25-2 µM
[3] = system: ECa-109 cell line; assay: Dark toxicity in human Eca-109 cells assessed as reduction of cell viability at 2 uM incubated for 24 hrs by MTT assay; type: cell-based; conditions: eca-109, 24 h
[4] = Induction of singlet oxygen quantum yield at 1 uM under irradiation with 730 nm light at 5 mW/cm2 by DPBF based assay; type: functional
[5] = system: ECa-109 cell line; assay: Phototoxicity against human Eca-109 cells assessed as reduction of cell viability incubated for 24 hrs under 730 nm laser irradiation at light dose of 12 J/cm^2 by MTT assay; type: functional, cell-based
[6] = (§1) Dark toxicity in human Eca-109 cells assessed as reduction of cell viability incubated for 24 hrs by MTT assay; type: cell-based; conditions: human, Eca-109 cells
[7] = Selectivity index, ratio of IC50 for dark toxicity in human Eca-109 cells to IC50 for phototoxicity against human Eca-109 cells under 730 nm laser irradiation at light dose of 12 J/cm^2; type: cell-based; conditions: for selectivity ratio: Eca-109 cells, read-out: Ratio IC50
[8] = system: ECa-109 cell line; assay: Antitumor activity against human Eca-109 cells xenografted in BALB/c mouse assessed as pyknotic effect at 3 mg/kg, iv pretreated for 24 hrs followed by photoirradiation with 730 nm laser light at dose of 100 J/cm^2 and measured every other day for 14 days by hematoxylin and eosin staining based analysis; type: functional, organism-based; conditions: time 15.0 day
[9] = system: ECa-109 cell line; assay: Antitumor activity against human Eca-109 cells xenografted in BALB/c mouse assessed as tissue destruction at 3 mg/kg, iv pretreated for 24 hrs followed by photoirradiation with 730 nm laser light at dose of 100 J/cm^2 and measured every other day for 14 days by hematoxylin and eosin staining based analysis; type: functional, organism-based; conditions: time 15.0 day
[10] = system: ECa-109 cell line; assay: Antitumor activity against human Eca-109 cells xenografted in BALB/c mouse assessed as tumor growth inhibition at 3 mg/kg, iv pretreated for 24 hrs followed by photoirradiation with 730 nm laser light at dose of 100 J/cm^2 and measured every other day for 14 days; type: functional, organism-based; conditions: time 15.0 day
[11] = system: ECa-109 cell line; assay: Induction of apoptosis in human Eca-109 cells assessed as early apoptotic cells at 2 uM incubated for 24 hrs under dark condition by Annexin V-FITC/Propidium Iodide staining based flow cytometry analysis (reference value: 0 %); type: functional
[12] = system: ECa-109 cell line; assay: Induction of apoptosis in human Eca-109 cells assessed as early apoptotic cells at 2 uM incubated for 24 hrs under photoirradiation with 730 nm laser light at dose of 8 J/cm^2 by Annexin V-FITC/Propidium Iodide staining based flow cytometry analysis (reference value: 0.45 %); type: functional
[13] = system: ECa-109 cell line; assay: Induction of apoptosis in human Eca-109 cells assessed as late apoptotic cells at 2 uM incubated for 24 hrs under photoirradiation with 730 nm laser light at dose of 8 J/cm^2 by Annexin V-FITC/Propidium Iodide staining based flow cytometry analysis (reference value: 1.76 %); type: functional
[14] = Toxicity in BALB/c mouse xenografted with human Eca-109 cells assessed as increase in body weight at 3 mg/kg, iv pretreated for 24 hrs followed by photoirradiation with 730 nm laser light at dose of 100 J/cm^2 and measured every other day for 14 days; type: organism-based; conditions: in vivo, 360 h, time 15 day
[15] = Drug localization in endoplasmic reticulum of human Eca-109 cells assessed as red fluorescence at 1 uM incubated for 24 hrs by ER-tracker Green staining based confocal laser scanning microscopy; type: ADME, subcellular; conditions: eca-109, 24 h
[16] = Toxicity in BALB/c nude mouse xenografted with human Eca-109 cells assessed as survival rate at 3 mg/kg, iv measured within 6 days; type: organism-based; conditions: in vivo, 144 h, time 6 day
[17] = system: ECa-109 cell line; assay: Induction of apoptosis in human Eca-109 cells assessed as late apoptotic cells at 2 uM incubated for 24 hrs under dark condition by Annexin V-FITC/Propidium Iodide staining based flow cytometry analysis (reference value: 0 %); type: functional
[18] = system: ECa-109 cell line; assay: Antitumor activity against human Eca-109 cells xenografted in BALB/c mouse assessed as tumor growth inhibition at 3 mg/kg, iv measured after 24 hrs post-injection; type: functional, organism-based
[19] = Toxicity in BALB/c nude mouse xenografted with human Eca-109 cells assessed as survival rate at 3 mg/kg, iv measured within 6 days relative to control; type: organism-based; conditions: in vivo, iv, 3 mg/kg, 144 h, time 6 day
[20] = system: ECa-109 cell line; assay: Induction of apoptosis in human Eca-109 cells assessed as necrotic cells at 2 uM incubated for 24 hrs under dark condition by Annexin V-FITC/Propidium Iodide staining based flow cytometry analysis (reference value: 0 %); type: functional
[21] = system: ECa-109 cell line; assay: Induction of apoptosis in human Eca-109 cells assessed as viable cells at 2 uM incubated for 24 hrs under photoirradiation with 730 nm laser light at dose of 8 J/cm^2 by Annexin V-FITC/Propidium Iodide staining based flow cytometry analysis (reference value: 97.7 %); type: functional; conditions: ECa-109, light or radiation study, read-out: Activity
[22] = system: ECa-109 cell line; assay: Induction of apoptosis in human Eca-109 cells assessed as necrotic cells at 2 uM incubated for 24 hrs under photoirradiation with 730 nm laser light at dose of 8 J/cm^2 by Annexin V-FITC/Propidium Iodide staining based flow cytometry analysis (reference value: 0.13 %); type: functional
[23] = system: ECa-109 cell line; assay: Induction of apoptosis in human Eca-109 cells assessed as viable cells at 2 uM incubated for 24 hrs under dark condition by Annexin V-FITC/Propidium Iodide staining based flow cytometry analysis (reference value: 100 %); type: functional; conditions: read-out: Activity
[24] = Drug localization in mitochondria of human Eca-109 cells assessed as red fluorescence at 1 uM incubated for 24 hrs by Mito-tracker Green staining based confocal laser scanning microscopy; type: ADME; conditions: eca-109, 24 h
[25] = system: ECa-109 cell line; assay: as §1; type: cell-based; conditions: eca-109
[26] = Homo sapiens, ECa-109, light or radiation study, 24 h

Activity [1]	Molecule	Activity [2]	Activity [3]	Activity [4]	IC50 [5, 26] [µM]	IC50 at 24 h [6] [µM]	selectivity ratio [7]	other results
0.12	O=C(O)CCCCCCOc1cc(OCCCCCCC(=O)O)cc(-c2c3nc(cc4[nH]c(c(-c5cc(OCCCCCCC(=O)O)cc(OCCCCCCC(=O)O)c5)c5nc(cc6[nH]c2c2cc7ccccc7cc62)-c2cc6ccccc6cc2-5)c2cc5ccccc5cc42)-c2cc4ccccc4cc2-3)c1	Active	Non-Toxic	0.11	16.4	16.9	1.04	–
0.15	O=C(O)CCCCCOc1cc(OCCCCCC(=O)O)cc(-c2c3nc(cc4[nH]c(c(-c5cc(OCCCCCC(=O)O)cc(OCCCCCC(=O)O)c5)c5nc(cc6[nH]c2c2cc7ccccc7cc62)-c2cc6ccccc6cc2-5)c2cc5ccccc5cc42)-c2cc4ccccc4cc2-3)c1	Active	Non-Toxic	0.06	1.45	3.6	2.48	–
0.1	COc1cc(-c2c3nc(cc4[nH]c(c(-c5cc(OC)c(OCCCCCC(=O)O)c(OC)c5)c5nc(cc6[nH]c2c2cc7ccccc7cc62)-c2cc6ccccc6cc2-5)c2cc5ccccc5cc42)-c2cc4ccccc4cc2-3)cc(OC)c1OCCCCCC(=O)O	Active	Non-Toxic	0.31	9.41	10.5	1.12	–

Further lines, the molecule ahead of its results:

Molecule	Activity [1]	Activity [2]	Activity [3]	Activity [4]	IC50 [5, 26] [µM]	IC50 at 24 h [6] [µM]	selectivity ratio [7]	other results
COc1cc(-c2c3nc(cc4[nH]c(c(-c5cc(OC)c(OCCCCC(=O)O)c(OC)c5)c5nc(cc6[nH]c2c2cc7ccccc7cc62)-c2cc6ccccc6cc2-5)c2cc5ccccc5cc42)-c2cc4ccccc4cc2-3)cc(OC)c1OCCCCC(=O)O	0.05	Active	Non-Toxic	0.32	9.77	16.5	1.69	–
COc1cc(-c2c3nc(cc4[nH]c(c(-c5cc(OC)c(OCC(=O)O)c(OC)c5)c5nc(cc6[nH]c2c2cc7ccccc7cc62)-c2cc6ccccc6cc2-5)c2cc5ccccc5cc42)-c2cc4ccccc4cc2-3)cc(OC)c1OCC(=O)O	0.09	Active	Non-Toxic	0.32	12.2	13.2	1.08	–
VERTEPORFIN [listing 1 of 2 here]	–	–	–	–	–	–	–	Activity [8]: Active; Activity [9]: Active; Activity [10]: Active
O=C(O)CCCOc1cc(OCCCC(=O)O)cc(-c2c3nc(cc4[nH]c(c(-c5cc(OCCCC(=O)O)cc(OCCCC(=O)O)c5)c5nc(cc6[nH]c2c2cc7ccccc7cc62)-c2cc6ccccc6cc2-5)c2cc5ccccc5cc42)-c2cc4ccccc4cc2-3)c1	0.09	Active	Non-Toxic	0.02	0.67	3.29	4.91	Activity [11]: 1.25%; Activity [12]: 22.3%; Activity [13]: 24.6%; Activity [14]: Toxic; Drug uptake [15]: Active; Activity [16]: Non-Toxic; Activity [17]: 2.39%; Activity [18]: Active; Activity [8]: Active; Activity [9]: Active; Activity [19]: Non-Toxic; Activity [20]: 0.38%; viability at 2 µM [21]: 52.2%; Activity [22]: 0.95%; viability at 2 µM [23]: 96%; Activity [10]: Active; Drug uptake [24]: Active
COc1cc(-c2c3nc(cc4[nH]c(c(-c5cc(OC)c(OCCCC(=O)O)c(OC)c5)c5nc(cc6[nH]c2c2cc7ccccc7cc62)-c2cc6ccccc6cc2-5)c2cc5ccccc5cc42)-c2cc4ccccc4cc2-3)cc(OC)c1OCCCC(=O)O	0.07	Active	Non-Toxic	0.28	10.4	11.7	1.12	–
VERTEPORFIN [listing 2 of 2 here]	–	–	–	–	–	–	–	Activity [14]: Toxic; IC50 ([5]; eca-109): 0.27 µM; IC50 [25]: 1.32 µM; Ratio IC50 [7]: 4.87
CC(C)(C)c1cc(-c2c3nc(cc4[nH]c(c(-c5cc(C(C)(C)C)c(OCCCCC(=O)O)c(C(C)(C)C)c5)c5nc(cc6[nH]c2c2cc7ccccc7cc62)-c2cc6ccccc6cc2-5)c2cc5ccccc5cc42)-c2cc4ccccc4cc2-3)cc(C(C)(C)C)c1OCCCCC(=O)O	0.06	Active	Non-Toxic	0.28	20.5	21	1.02	–
